Laboratory results: paper PMC9571547, “New Triazinoindole Bearing Benzimidazole/Benzoxazole Hybrids Analogs as Potent Inhibitors of Urease: Synthesis, In Vitro Analysis and Molecular Docking Studies” (Molecules, 2022)

The molecules below were run against urease enzyme (Canavalia ensiformis, UniProt P07374) (assay: biochemical). Conditions: not given.
Format: biochemical
Procedure: First, 5 μL of the test compounds were added to the reaction mixtures, which also contained 25 μL of enzyme solution and 55 μL of buffer containing 100 mM urea, then the mixtures were incubated in 96-well plates at 30 °C for 15 min (0.5 mM concentration). For the kinetics analysis, urea concentrations were changed from 2 to 24 mM. Urease activity was determined by measuring ammonia generation using Weatherburn’s indophenol method. In a nutshell, each well received 45 μL of the 0.005% w/v sodium nitroprusside, phenol reagent 1% w/v phenol, and 70 μL of the alkali reagent—0.1% active chloride NaOCl and 0.5% w/v NaOH. Using a microplate reader, rising absorbance at 630 nm was observed after 50 min (Molecular Devices, San Jose, CA, USA). In a final volume of 200 μL, each reaction was carried out three times. Using the software SoftMaxPro, the results (change in absorbance per minute) were processed (Molecular Devices, San Jose, CA, USA). The experiments were run at pH 6.8 throughout. The formula 100-(ODtest well/ODcontrol) 100 was used to calculate the percentage of inhibition.

urease enzyme, sequence (P07374 whole entry, looked up): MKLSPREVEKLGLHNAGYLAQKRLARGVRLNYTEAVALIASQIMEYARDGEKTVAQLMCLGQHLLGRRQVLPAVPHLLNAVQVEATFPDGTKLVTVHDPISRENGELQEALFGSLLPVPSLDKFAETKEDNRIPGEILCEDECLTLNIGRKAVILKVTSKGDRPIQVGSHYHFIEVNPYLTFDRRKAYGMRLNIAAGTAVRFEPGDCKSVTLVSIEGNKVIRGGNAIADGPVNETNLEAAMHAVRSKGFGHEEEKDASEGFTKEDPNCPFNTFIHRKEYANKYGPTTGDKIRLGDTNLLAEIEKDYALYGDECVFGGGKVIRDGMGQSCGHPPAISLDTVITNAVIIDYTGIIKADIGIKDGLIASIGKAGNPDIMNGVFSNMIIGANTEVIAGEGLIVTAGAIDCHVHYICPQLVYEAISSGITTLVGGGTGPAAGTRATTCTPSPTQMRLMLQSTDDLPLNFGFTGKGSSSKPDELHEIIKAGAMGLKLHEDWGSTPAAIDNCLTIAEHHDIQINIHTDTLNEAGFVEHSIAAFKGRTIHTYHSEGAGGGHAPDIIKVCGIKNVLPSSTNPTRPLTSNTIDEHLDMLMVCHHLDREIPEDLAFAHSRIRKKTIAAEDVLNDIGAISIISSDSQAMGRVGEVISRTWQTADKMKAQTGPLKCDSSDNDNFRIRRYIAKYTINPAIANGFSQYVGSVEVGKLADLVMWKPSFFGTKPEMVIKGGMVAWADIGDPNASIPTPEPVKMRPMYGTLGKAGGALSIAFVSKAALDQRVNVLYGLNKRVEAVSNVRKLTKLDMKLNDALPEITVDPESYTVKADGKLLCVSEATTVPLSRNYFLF

Point of comparison: `O=C(c1ccccc1[N+](=O)[O-])n1c(CSc2nnc3c4cc([N+](=O)[O-])ccc4n(C(=O)c4ccccc4[N+](=O)[O-])c3n2)nc2ccccc21` [analog 10], IC50 19.3 ± 0.4 µM. Against it:
- O=C(c1ccc([N+](=O)[O-])cc1)n1c(CSc2nnc3c4cc([N+](=O)[O-])ccc4n(C(=O)c4ccc([N+](=O)[O-])cc4)c3n2)nc2ccccc21 [analog 1] — within 1.5-fold, 17.6 ± 0.3 µM
- O=C(c1ccc(O)cc1O)n1c(CSc2nnc3c4cc([N+](=O)[O-])ccc4n(C(=O)c4ccc(O)cc4O)c3n2)nc2ccccc21 [analog 2] — 10-fold lower, 1.9 ± 0.1 µM
- O=C(c1cc(O)cc(O)c1)n1c(CSc2nnc3c4cc([N+](=O)[O-])ccc4n(C(=O)c4cc(O)cc(O)c4)c3n2)nc2ccccc21 [analog 3] — 9.2-fold lower, 2.1 ± 0.1 µM
- COc1ccccc1C(=O)n1c(CSc2nnc3c4cc([N+](=O)[O-])ccc4n(C(=O)c4ccccc4OC)c3n2)nc2ccccc21 [analog 4] — 1.7-fold higher, 32.2 ± 0.3 µM
- O=C(c1ccc(O)c(O)c1)n1c(CSc2nnc3c4cc([N+](=O)[O-])ccc4n(C(=O)c4ccc(O)c(O)c4)c3n2)nc2ccccc21 [analog 5] — 21-fold lower, 0.9 ± 0.01 µM
- O=C(c1cc(O)ccc1O)n1c(CSc2nnc3c4cc([N+](=O)[O-])ccc4n(C(=O)c4cc(O)ccc4O)c3n2)nc2ccccc21 [analog 6] — 2.9-fold lower, 6.7 ± 0.2 µM
- O=C(c1cccc(O)c1)n1c(CSc2nnc3c4cc([N+](=O)[O-])ccc4n(C(=O)c4cccc(O)c4)c3n2)nc2ccccc21 [analog 7] — within error, 18.9 ± 0.4 µM
- O=C(c1c(O)cc(O)cc1O)n1c(CSc2nnc3c4cc([N+](=O)[O-])ccc4n(C(=O)c4c(O)cc(O)cc4O)c3n2)nc2ccccc21 [analog 8] — 96-fold lower, 0.2 ± 0.01 µM
- CN(C)c1ccc(C(=O)n2c(CSc3nnc4c5cc([N+](=O)[O-])ccc5n(C(=O)c5ccc(N(C)C)cc5)c4n3)nc3ccccc32)cc1 [analog 9] — 1.6-fold higher, 31.1 ± 0.3 µM
- O=C(c1cccc([N+](=O)[O-])c1)n1c(CSc2nnc3c4cc([N+](=O)[O-])ccc4n(C(=O)c4cccc([N+](=O)[O-])c4)c3n2)nc2ccccc21 [analog 11] — within 1.5-fold, 26.6 ± 0.5 µM
- O=C(c1ccc(O)cc1)n1c(CSc2nnc3c4cc([N+](=O)[O-])ccc4n(C(=O)c4ccc(O)cc4)c3n2)nc2ccccc21 [analog 12] — within 1.5-fold, 14.6 ± 0.3 µM
- O=C(c1ccc(Cl)cc1)n1c2ccc([N+](=O)[O-])cc2c2nnc(SCc3nc4ccccc4o3)nc21 [analog 13] — 2-fold lower, 9.7 ± 0.2 µM
- COC(=O)c1ccc(C(=O)n2c3ccc([N+](=O)[O-])cc3c3nnc(SCc4nc5ccccc5o4)nc32)cc1 [analog 14] — within 1.5-fold, 23.9 ± 0.5 µM
- Cc1ccccc1C(=O)n1c2ccc([N+](=O)[O-])cc2c2nnc(SCc3nc4ccccc4o3)nc21 [analog 15] — 1.9-fold higher, 36.2 ± 0.7 µM
- Cc1ccc(C(=O)n2c3ccc([N+](=O)[O-])cc3c3nnc(SCc4nc5ccccc5o4)nc32)cc1 [analog 16] — within 1.5-fold, 28.2 ± 0.5 µM
- O=C(c1cccc(Cl)c1)n1c2ccc([N+](=O)[O-])cc2c2nnc(SCc3nc4ccccc4o3)nc21 [analog 17] — within 1.5-fold, 22.2 ± 0.5 µM
- O=C(c1ccccc1O)n1c2ccc([N+](=O)[O-])cc2c2nnc(SCc3nc4ccccc4o3)nc21 [analog 18] — 5.1-fold lower, 3.8 ± 0.1 µM
- Cc1cccc(C(=O)n2c3ccc([N+](=O)[O-])cc3c3nnc(SCc4nc5ccccc5o4)nc32)c1 [analog 19] — 1.8-fold higher, 34.9 ± 0.7 µM
- COc1ccc(C(=O)n2c3ccc([N+](=O)[O-])cc3c3nnc(SCc4nc5ccccc5o4)nc32)cc1O [analog 20] — 7.1-fold lower, 2.7 ± 0.1 µM
- COc1ccc(C(=O)n2c3ccc([N+](=O)[O-])cc3c3nnc(SCc4nc5ccccc5o4)nc32)c(OC)c1 [analog 21] — 1.6-fold higher, 31.8 ± 0.5 µM
- O=C(c1cccc(O)c1O)n1c2ccc([N+](=O)[O-])cc2c2nnc(SCc3nc4ccccc4o3)nc21 [analog 22] — 11-fold lower, 1.7 ± 0.1 µM
- O=C(c1ccccc1F)n1c2ccc([N+](=O)[O-])cc2c2nnc(SCc3nc4ccccc4o3)nc21 [analog 23] — 18-fold lower, 1.1 ± 0.01 µM
- O=C(c1cccc(F)c1)n1c2ccc([N+](=O)[O-])cc2c2nnc(SCc3nc4ccccc4o3)nc21 [analog 24] — 12-fold lower, 1.6 ± 0.01 µM
- O=C(c1cccc([N+](=O)[O-])c1)n1c2ccc([N+](=O)[O-])cc2c2nnc(SCc3nc4ccccc4o3)nc21 [analog 25] — within 1.5-fold, 21.2 ± 0.4 µM

Same assay, conditions: in vitro; pH 6.8; 30 °C; 100 mM urea; thiourea as standard; read-out: IC50 ± SEM against the urease enzyme

In the case of `NC(N)=S` [Standard Thiourea, thiourea, reference compound], the IC50 is reported as 21.9 ± 0.4 µM.

Same assay, conditions: urease inhibition, compared to thiourea

In the case of `O=C(c1cccc(O)c1O)n1c2ccc([N+](=O)[O-])cc2c2nnc(SCc3nc4ccccc4o3)nc21` [analog 22], the “potency relative to standard thiourea drug (fold)” value is reported as “ten-fold-enhanced inhibitory potential”.
`O=C(c1ccccc1F)n1c2ccc([N+](=O)[O-])cc2c2nnc(SCc3nc4ccccc4o3)nc21` [analog 23] was tested, and the “potency relative to standard thiourea drug (fold)” value was “ten-fold-enhanced inhibitory potential”.
